Test results: US20240327380A1, “BTK INHIBITORS” (BIOGEN MA INC., priority 2020, published 2024)

How the values were obtained:
[1] = molecular target: T1, active BTK enzyme (Upstate 14-552) (Homo sapiens, UniProt Q06187); assay: In Vitro BTK Kinase Assay: Btk-PolyGAT-LS Assay; type: biochemical; conditions: ATP 10 μM, polyGAT 100 nM, BTK 0.25 nM, 30 minutes, TRF readout
T1 construct: purchased Upstate 14-552
Summary of the method: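 Active BTK (0.25 nM) phosphorylates fluorescein-polyGAT peptide (100 nM) with 10 µM ATP in Tris-HCl pH 7.5/MgCl2/DTT buffer, 30 min, EDTA stop. Phosphopeptide detected by TR-FRET with Tb-PY20 antibody after 45 min at room temperature; IC50 from four-parameter fit against DMSO and EDTA controls.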

[2] = test system: CD69 expression on CD19+ B cells in human whole blood; assay: In Vitro whole blood CD69 Assay; type: cell-based; conditions: B-cell; human heparinized whole blood, anti-human IgD stimulation overnight, percentage of CD19+ B cells expressing CD69, flow cytometry; read-out: IC50
Procedure: In Vitro whole blood CD69 Assay
Human heparinized venous blood from health donors was aliquoted into 96-well plate and “spiked” with serial dilutions of formula I compounds in DMSO or with DMSO without drug. The final concentration of DMSO in all wells was 0.1%. The plate was incubated at 37° C. for 30 min. Drug-containing samples were stimulated with […] mouse anti-human IgD-dextran (1A62) or […] polyclonal rabbit F(ab′)2 anti-human IgD. Phosphate-buffered saline (PBS) was added to the negative control unstimulated sample and the plates were incubated overnight (18 to 22 hours) at 37° C. Cells were stained with fluorochrome-conjugated anti-CD19 and anti-CD69 antibodies. Lyse/fix solution was used to remove red blood cells by hypotonic lysis and to fix the remaining cells, which were then analyzed by flow cytometry. CD19+ B cells were gated and analyzed for CD69 expression. The percentage of B cells expressing CD69 was plotted versus the log 10 of the concentration of the drug and the best-fit curves (variable Hill slope) were generated to obtain the IC50 value.

T1 sequence (Q06187 whole entry): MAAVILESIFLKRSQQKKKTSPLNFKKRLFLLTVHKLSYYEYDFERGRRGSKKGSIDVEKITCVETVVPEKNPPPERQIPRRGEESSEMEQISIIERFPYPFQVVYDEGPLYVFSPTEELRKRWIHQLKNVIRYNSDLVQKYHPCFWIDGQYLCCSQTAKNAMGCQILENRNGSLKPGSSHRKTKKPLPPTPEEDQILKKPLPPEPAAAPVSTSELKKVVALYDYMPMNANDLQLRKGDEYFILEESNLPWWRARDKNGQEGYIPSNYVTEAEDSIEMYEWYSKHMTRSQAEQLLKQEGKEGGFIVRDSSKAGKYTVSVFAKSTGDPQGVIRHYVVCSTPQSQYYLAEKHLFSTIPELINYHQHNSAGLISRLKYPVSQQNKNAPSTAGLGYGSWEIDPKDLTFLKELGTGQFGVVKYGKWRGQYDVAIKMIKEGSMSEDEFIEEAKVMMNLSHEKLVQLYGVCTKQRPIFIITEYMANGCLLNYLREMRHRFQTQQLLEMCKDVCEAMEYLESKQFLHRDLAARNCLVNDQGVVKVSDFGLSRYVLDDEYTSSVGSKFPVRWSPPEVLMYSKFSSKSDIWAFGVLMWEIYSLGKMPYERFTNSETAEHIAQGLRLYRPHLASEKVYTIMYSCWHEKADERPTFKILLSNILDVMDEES

| SMILES | IC50 [1] | IC50 [2] |
| --- | --- | --- |
| C=CC(=O)N(CC)[C@@H]1CCCN(c2cnccc2-c2ccc(CNC(=O)c3cn(C(C)(C)C)nn3)c(C)c2)C1 (stereo in doubt) [Example 16, 1-(tert-butyl)-N-(4-(3-(3-(N-ethylacrylamido)piperidin-1-yl)pyridin-4-yl)-2-methylbenzyl)-1H-1,2,3-triazole-4-carboxamide] | ≤ 0.001 µM | 0.1 to 1 µM |
| C=CC(=O)N1CCN(c2cnccc2-c2ccc(CNC(=O)c3cn(C(C)(C)C)nn3)c(C)c2)CC1 [Example 49, N-(4-(3-(4-acryloylpiperazin-1-yl)pyridin-4-yl)-2-methylbenzyl)-1-(tert-butyl)-1H-1,2,3-triazole-4-carboxamide] | ≤ 0.001 µM | 0.1 to 1 µM |
| C=CC(=O)N(C)[C@@H]1CCCN(c2cnccc2-c2ccc(CNC(=O)c3noc(C(C)(C)C)n3)c(C)c2F)C1 (stereo in doubt) [Example 19, 5-(tert-butyl)-N-(3-fluoro-2-methyl-4-(3-(3-(N-methylacrylamido)piperidin-1-yl)pyridin-4-yl)benzyl)-1,2,4-oxadiazole-3-carboxamide] | ≤ 0.001 µM | 0.1 to 1 µM |
| C=CC(=O)N1CCC(c2cnccc2-c2ccc(CNC(=O)c3nc(C(C)(C)C)no3)c(C)c2)CC1 [Example 36, N-(4-(3-(1-acryloylpiperidin-4-yl)pyridin-4-yl)-2-methylbenzyl)-3-(tert-butyl)-1,2,4-oxadiazole-5-carboxamide] | 0.001 to 0.01 µM | 0.1 to 1 µM |
| C=CC(=O)N(C)C1CCN(c2cnccc2-c2ccc(CNC(=O)c3cn(C(C)(C)C)nn3)c(C)c2)C1 (stereo not drawn) [Example 2, 1-(tert-butyl)-N-(2-methyl-4-(3-(3-(N-methylacrylamido)pyrrolidin-1-yl)pyridin-4-yl)benzyl)-1H-1,2,3-triazole-4-carboxamide] | 0.001 to 0.01 µM | 0.1 to 1 µM |
| C=CC(=O)N(C1CC1)[C@@H]1CCCN(c2cnccc2-c2ccc(CNC(=O)c3cn(C(C)(C)C)nn3)c(C)c2)C1 (stereo in doubt) [Example 17, 1-(tert-butyl)-N-(4-(3-(3-(N-cyclopropylacrylamido)piperidin-1-yl)pyridin-4-yl)-2-methylbenzyl)-1H-1,2,3-triazole-4-carboxamide] | ≤ 0.001 µM | > 1 µM |
| Cc1cc(-c2ccncc2N2CCN(C(=O)/C=C/CN(C)C)CC2)ccc1CNC(=O)c1noc(C(C)(C)C)n1 [Example 61, (E)-5-(tert-butyl)-N-(4-(3-(4-(4-(dimethylamino)but-2-enoyl)piperazin-1-yl)pyridin-4-yl)-2-methylbenzyl)-1,2,4-oxadiazole-3-carboxamide] | ≤ 0.001 µM | < 0.1 µM |
| C=CC(=O)N1CCN(c2cnccc2-c2ccc(CNC(=O)c3noc(C(C)(C)C)n3)c(C)c2)CC1 [Example 63, N-(4-(3-(4-acryloylpiperazin-1-yl)pyridin-4-yl)-2-methylbenzyl)-5-(tert-butyl)-1,2,4-oxadiazole-3-carboxamide] | ≤ 0.001 µM | 0.1 to 1 µM |
| C=CC(=O)N(C)C1CCCN(c2cnccc2-c2ccc(CNC(=O)c3ncn(C(C)(C)C)n3)c(C)c2)C1 (stereo not drawn) [Example 40, 1-(tert-butyl)-N-(2-methyl-4-(3-(3-(N-methylacrylamido)piperidin-1-yl)pyridin-4-yl)benzyl)-1H-1,2,4-triazole-3-carboxamide] | 0.001 to 0.01 µM | > 1 µM |
| C=CC(=O)N(C)C1CCCN(c2cnccc2-c2ccc(CNC(=O)c3cn(C(C)(C)C)cn3)c(C)c2)C1 (stereo not drawn) [Example 43, 1-(tert-butyl)-N-(2-methyl-4-(3-(3-(N-methylacrylamido)piperidin-1-yl)pyridin-4-yl)benzyl)-1H-imidazole-4-carboxamide] | 0.001 to 0.01 µM | > 1 µM |
| C=CC(=O)N(C)C1CCCN(c2cnccc2-c2ccc(CNC(=O)c3coc(C(C)(C)C)n3)c(C)c2)C1 (stereo not drawn) [Example 37, 2-(tert-butyl)-N-(2-methyl-4-(3-(3-(N-methylacrylamido)piperidin-1-yl)pyridin-4-yl)benzyl)oxazole-4-carboxamide] | ≤ 0.001 µM | 0.1 to 1 µM |
| C=CC(=O)N(C)C1CCCN(c2cnccc2-c2ccc(CNC(=O)c3noc(C(C)(C)C)n3)c(C)c2)C1 (stereo not drawn) [Example 12, 5-(tert-butyl)-N-(2-methyl-4-(3-(3-(N-methylacrylamido)piperidin-1-yl)pyridin-4-yl)benzyl)-1,2,4-oxadiazole-3-carboxamide] | ≤ 0.001 µM | < 0.1 µM |
| C=CC(=O)N(C)[C@@H]1CCCN(c2cncc(F)c2-c2ccc(CNC(=O)c3cn(C(C)(C)C)nn3)c(C)c2)C1 [Example 56, 1-tert-butyl-N-[[4-[3-fluoro-5-[(3R)-3-[methyl(prop-2-enoyl)amino]-1-piperidyl]-4-pyridyl]-2-methyl-phenyl]methyl]triazole-4-carboxamide] | ≤ 0.001 µM | 0.1 to 1 µM |
| C=CC(=O)N1CCC[C@@H](c2cnccc2-c2ccc(CNC(=O)c3noc(C4(C)CC4)n3)c(C)c2)C1 (single isomer, unassigned) [Example 28] | > 0.01 µM | > 1 µM |
| C=CC(=O)N(C)[C@H]1CCCN(c2cnccc2-c2ccc(CNC(=O)c3cn(C(C)(C)C)nn3)c(C)c2)C1 [Example 15, (S)-1-(tert-butyl)-N-(2-methyl-4-(3-(3-(N-methylacrylamido)piperidin-1-yl)pyridin-4-yl)benzyl)-1H-1,2,3-triazole-4-carboxamide] | > 0.01 µM | > 1 µM |
| Cc1cc(-c2ccncc2N2CCN(C(=O)/C=C/CN(C)C)CC2)ccc1CNC(=O)c1noc(C(C)(C)C)c1F [Example 95, (E)-5-(tert-butyl)-N-(4-(3-(4-(4-(dimethylamino)but-2-enoyl)piperazin-1-yl)pyridin-4-yl)-2-methylbenzyl)-4-fluoroisoxazole-3-carboxamide] | 0.001 to 0.01 µM | 0.1 to 1 µM |
| Cc1cc(-c2ccncc2N2CCN(C(=O)/C=C/CN(C)C)CC2)ccc1CNC(=O)c1nc(C2(C)CC2)no1 [Example 73, (E)-N-(4-(3-(4-(4-(dimethylamino)but-2-enoyl)piperazin-1-yl)pyridin-4-yl)-2-methylbenzyl)-3-(1-methylcyclopropyl)-1,2,4-oxadiazole-5-carboxamide] | ≤ 0.001 µM | 0.1 to 1 µM |
| C=CC(=O)N(C)C1CCCN(c2cncnc2-c2ccc(CNC(=O)c3cn(C(C)(C)C)nn3)c(C)c2)C1 (stereo not drawn) [Example 8, 1-(tert-butyl)-N-(2-methyl-4-(5-(3-(N-methylacrylamido)piperidin-1-yl)pyrimidin-4-yl)benzyl)-1H-1,2,3-triazole-4-carboxamide] | ≤ 0.001 µM | < 0.1 µM |
| C=CC(=O)N(C)C1CCCN(c2cnccc2-c2ccc(CNC(=O)c3cc(C(C)(C)C)no3)c(C)c2)C1 (stereo not drawn) [Example 46, 3-(tert-butyl)-N-(2-methyl-4-(3-(3-(N-methylacrylamido)piperidin-1-yl)pyridin-4-yl)benzyl)isoxazole-5-carboxamide] | ≤ 0.001 µM | 0.1 to 1 µM |
| Cc1cc(-c2ccncc2N2CCN(C(=O)/C=C/CN(C)C)CC2)ccc1CN(C)C(=O)c1noc(C(C)(C)C)n1 [Example 71, (E)-5-(tert-butyl)-N-(4-(3-(4-(4-(dimethylamino)but-2-enoyl)piperazin-1-yl)pyridin-4-yl)-2-methylbenzyl)-N-methyl-1,2,4-oxadiazole-3-carboxamide] | 0.001 to 0.01 µM | 0.1 to 1 µM |
| C=CC(=O)N(C)C1CCCN(c2cnccc2-c2ccc(CNC(=O)c3cn(C(C)(C)C)nn3)c(C)c2)C1 (stereo not drawn) [Example 1, 1-(tert-butyl)-N-(2-methyl-4-(3-(3-(N-methylacrylamido)piperidin-1-yl)pyridin-4-yl)benzyl)-1H-1,2,3-triazole-4-carboxamide] | ≤ 0.001 µM | 0.1 to 1 µM |
| C=CC(=O)N1CCC[C@H](c2cnccc2-c2ccc(CNC(=O)c3cc(C(C)(C)C)on3)c(C)c2)C1 (single isomer, unassigned) [Example 33] | 0.001 to 0.01 µM | > 1 µM |
| C=CC(=O)N(C)C1CCCN(c2cnccc2-c2ccc(CNC(=O)c3ccn(C(C)(C)C)n3)c(C)c2)C1 (stereo not drawn) [Example 44, 1-(tert-butyl)-N-(2-methyl-4-(3-(3-(N-methylacrylamido)piperidin-1-yl)pyridin-4-yl)benzyl)-1H-pyrazole-3-carboxamide] | 0.001 to 0.01 µM | > 1 µM |
| CN(C)C/C=C/C(=O)N1CCN(c2cnccc2-c2ccc(CNC(=O)c3noc(C(C)(C)C)n3)c(C(F)(F)F)c2)CC1 [Example 90, (E)-5-(tert-butyl)-N-(4-(3-(4-(4-(dimethylamino)but-2-enoyl)piperazin-1-yl)pyridin-4-yl)-2-(trifluoromethyl)benzyl)-1,2,4-oxadiazole-3-carboxamide] | ≤ 0.001 µM | < 0.1 µM |
